Measurements: ChEMBL document CHEMBL4390659, “Molecular hybridization approach for phenothiazine incorporated 1,2,3-triazole hybrids as promising antimicrobial agents: Design, synthesis, molecular docking and in silico ADME studies” (Eur J Med Chem, 2019)
≈ marks a conversion by molar mass, not a printed value.

Legend:
[1] = system: Mycobacterium tuberculosis; assay: Antibacterial activity against Mycobacterium tuberculosis H37Rv ATCC 27294 assessed as reduction in mycobacterial growth incubated for 5 days by MABA method; type: functional; conditions: H37Rv ATCC 27294, 120 h
Escherichia coli = assay: Antibacterial activity against Escherichia coli incubated for 24 hrs by agar dilution method; type: functional
Staphylococcus aureus = assay: Antibacterial activity against Staphylococcus aureus incubated for 24 hrs by agar dilution method; type: functional
Pseudomonas aeruginosa = assay: Antibacterial activity against Pseudomonas aeruginosa incubated for 24 hrs by agar dilution method; type: functional
[2] = system: Mycobacterium tuberculosis; assay: Potency index, ratio of ciprofloxacin MIC to test compound MIC against Mycobacterium tuberculosis H37Rv ATCC 27294; type: functional
[3] = system: Mycobacterium tuberculosis; assay: Potency index, ratio of streptomycin MIC to test compound MIC against Mycobacterium tuberculosis H37Rv ATCC 27294; type: functional
Vero = assay: Cytotoxicity against African green monkey Vero cells assessed as reduction in cell viability incubated for 72 hrs by MTT assay; type: cell-based; conditions: Chlorocebus sabaeus
[4] = Cytotoxicity against African green monkey Vero cells assessed as cell growth inhibition at 6.25 ug/ml incubated for 72 hrs by MTT assay relative to control; type: cell-based; conditions: chlorocebus sabaeus, read-out: GI
[5] = Selectivity index, ratio of IC50 for African green monkey Vero cells to MIC for Mycobacterium tuberculosis H37Rv ATCC 27294; type: toxicity; conditions: read-out: Selectivity Index

Compound	MIC [1]	MIC (Escherichia coli) [µg/mL]	MIC (Staphylococcus aureus) [µg/mL]	MIC (Pseudomonas aeruginosa) [µg/mL]	Ratio [2]	Ratio [3]	IC50 (Vero) [µg/mL]	inhibition at 72 h, 6.25 ug/ml [4] [%]	selectivity ratio [5]
Cc1ccc(Cn2cc(COCc3ccc4c(c3)Sc3ccccc3N4C)nn2)cc1	58.3 µM	100 (≈ 233 µM)	50 (≈ 117 µM)	100 (≈ 233 µM)	–	–	–	–	–
N#Cc1ccc(Cn2cc(CN3c4ccc(/C=N/NC(=O)c5ccccc5)cc4Sc4ccc(C(F)(F)F)cc43)nn2)cc1	2.62 µM	50 (≈ 82 µM)	50 (≈ 82 µM)	50 (≈ 82 µM)	4	4	552 (≈ 905 µM)	12.3	44.7
CN1c2ccccc2Sc2cc(COCc3cn(Cc4ccccc4)nn3)ccc21	60.3 µM	50 (≈ 121 µM)	50 (≈ 121 µM)	100 (≈ 241 µM)	–	–	–	–	–
CN1c2ccccc2Sc2cc(COCc3cn(Cc4ccccc4F)nn3)ccc21	28.9 µM	25 (≈ 57.8 µM)	25 (≈ 57.8 µM)	50 (≈ 116 µM)	–	–	–	–	–
CN1c2ccccc2Sc2cc(/C=N/OCc3cn(Cc4ccc(F)cc4)nn3)ccc21	56.1 µM	25 (≈ 56.1 µM)	12.5 (≈ 28.1 µM)	25 (≈ 56.1 µM)	–	–	–	–	–
COc1ccc(Cn2cc(COCc3ccc4c(c3)Sc3ccccc3N4C)nn2)cc1	56.2 µM	100 (≈ 225 µM)	50 (≈ 112 µM)	50 (≈ 112 µM)	–	–	–	–	–
CN1c2ccccc2Sc2cc(/C=N/OCc3cn(Cc4ccccc4F)nn3)ccc21	56.1 µM	25 (≈ 56.1 µM)	12.5 (≈ 28.1 µM)	25 (≈ 56.1 µM)	–	–	–	–	–
CN1c2ccccc2Sc2cc(COCc3cn(Cc4ccc([N+](=O)[O-])cc4)nn3)ccc21	54.4 µM	50 (≈ 109 µM)	25 (≈ 54.4 µM)	50 (≈ 109 µM)	–	–	–	–	–
Cc1ccc(Cn2cc(CN3c4ccccc4Sc4ccccc43)nn2)cc1	6.25 µg/mL	100 (≈ 260 µM)	50 (≈ 130 µM)	100 (≈ 260 µM)	–	–	–	–	–
CN1c2ccccc2Sc2cc(COCc3cn(Cc4ccc(F)cc4)nn3)ccc21	28.9 µM	25 (≈ 57.8 µM)	25 (≈ 57.8 µM)	50 (≈ 116 µM)	–	–	–	–	–
CN1c2ccccc2Sc2cc(COCc3cn(Cc4ccc(C#N)cc4)nn3)ccc21	28.4 µM	25 (≈ 56.9 µM)	12.5 (≈ 28.4 µM)	25 (≈ 56.9 µM)	–	–	–	–	–
CN1c2ccccc2Sc2cc(/C=N/OCc3cn(Cc4ccccc4)nn3)ccc21	58.4 µM	100 (≈ 234 µM)	50 (≈ 117 µM)	50 (≈ 117 µM)	–	–	–	–	–
Fc1ccc(Cn2cc(CN3c4ccccc4Sc4ccccc43)nn2)cc1	3.12 µg/mL	12.5 (≈ 32.2 µM)	12.5 (≈ 32.2 µM)	12.5 (≈ 32.2 µM)	–	–	3800 (≈ 9790 µM)	8.34	456
CN1c2ccccc2Sc2cc(/C=N/OCc3cn(Cc4ccc([N+](=O)[O-])cc4)nn3)ccc21	52.9 µM	50 (≈ 106 µM)	25 (≈ 52.9 µM)	100 (≈ 212 µM)	–	–	–	–	–
CN1c2ccccc2Sc2cc(/C=N/OCc3cn(Cc4ccc(C#N)cc4)nn3)ccc21	27.6 µM	25 (≈ 55.2 µM)	12.5 (≈ 27.6 µM)	25 (≈ 55.2 µM)	–	–	–	–	–
Cc1ccc(Cn2cc(CO/N=C/c3ccc4c(c3)Sc3ccccc3N4C)nn2)cc1	56.6 µM	50 (≈ 113 µM)	25 (≈ 56.6 µM)	100 (≈ 226 µM)	–	–	–	–	–
c1ccc(Cn2cc(CN3c4ccccc4Sc4ccccc43)nn2)cc1	6.25 µg/mL	50 (≈ 135 µM)	50 (≈ 135 µM)	100 (≈ 270 µM)	–	–	–	–	–
COc1ccc(Cn2cc(CO/N=C/c3ccc4c(c3)Sc3ccccc3N4C)nn2)cc1	54.6 µM	100 (≈ 219 µM)	50 (≈ 109 µM)	100 (≈ 219 µM)	–	–	–	–	–
O=C(O)c1cn(C2CC2)c2cc(N3CCNCC3)c(F)cc2c1=O [CIPROFLOXACIN]	–	–	2 (≈ 6.04 µM)	4 (≈ 12.1 µM)	–	–	–	–	–
NNC(=O)c1ccncc1 [ISONIAZID]	3.12 µg/mL	–	–	–	–	–	–	–	–
NC(=O)c1cnccn1 [PYRAZINAMIDE]	3.12 µg/mL	–	–	–	–	–	–	–	–
CN[C@@H]1[C@H](O[C@H]2[C@H](O[C@H]3[C@H](O)[C@@H](O)[C@H](N=C(N)N)[C@@H](O)[C@@H]3N=C(N)N)O[C@@H](C)[C@]2(O)C=O)O[C@@H](CO)[C@H](O)[C@H]1O [STREPTOMYCIN]	6.25 µg/mL	–	–	–	–	–	–	–	–
